A short description of data set [1]: Thermal stability, one hour treatment at 180° C. in open glass vessels. It counts as physicochemical. Particulars: tributyltin content not determinable.
Experimental: After prior methylation, the content of tributyltin compounds after a one hour treatment at 180° C. in open glass vessels was determined by gas chromatography.
Data set [2] can be described thus: Water solubility in tap water (one week stirring, chloroform extraction, tin by atomic absorption spectroscopy). The note with it: products of Examples 1 and 2 based on 100%, 10080 min. It counts as physicochemical.
Experimental: 1 g of the substance to be tested was mixed in a beaker with 1 liter of tap water by stirring for one week. After settling and decanting, the organotin compounds dissolved in the water were extracted with chloroform. The tin concentrations were determined by atomic absorption spectroscopy.
The subject of data set [3] is Bacillus mesentericus. The data set is described as follows: Overlay test, zones of inhibition, Bacillus mesentericus. It counts as cell-based. Particulars: two days at 37° C.
The subject of data set [4] is Proteus vulgaris. Briefly: Overlay test, zones of inhibition, Proteus vulgaris. It counts as cell-based. The note with it: two days at 37° C.
A short description of data set [5]: Evaporation behavior: thermobalance tests. It counts as physicochemical. Particulars: products of Examples 1 and 2 based on 100%.
Experimental: (§1) Weight losses were determined after one week storage in a circulating-air dryer at 65° C. and tests with a thermobalance (onset of weight loss, and weight loss at 350° C.) were performed.
(§2) The exact initial weight of the specimens (about 2 g) in glass Petri dishes (about 10 cm in diameter) is determined and the weight loss after treatment is determined by reweighing.
In data set [6] the test system is Bacillus subtilis. The data set is described as follows: Overlay test, zones of inhibition, Bacillus subtilis. The class given is cell-based. The note with it: two days at 37° C.
Data set [7] is described as follows: Evaporation behavior: weight loss after one week storage in a circulating-air dryer at 65° C. It counts as physicochemical. The note with it: products of Examples 1 and 2 based on 100%.
Experimental: as §1, §2
The mark [8] stands for this setting: 0.10 wt. % tin (impregnating solution: TBTO 0.25; TBTL, TBTN 0.5; Ex. 1 1.0; Ex. 2 1.1 wt. %).
Where [9] appears, read: 0.16 wt. % tin (impregnating solution: TBTO 0.4; TBTL, TBTN 0.8; Ex. 1 1.65; Ex. 2 1.7 wt. %).
The mark [10] stands for this setting: 0.24 wt. % tin (impregnating solution: TBTO 0.6; TBTL, TBTN 1.2; Ex. 1 2.45; Ex. 2 2.6 wt. %).
The mark [11] stands for this setting: 0.40 wt. % tin (impregnating solution: TBTO 1.0; TBTL, TBTN 2.0; Ex. 1 4.1; Ex. 2 4.3 wt. %).

`CCC[CH2][Sn]([CH2]CCC)([CH2]CCC)[O][Sn]([CH2]CCC)([CH2]CCC)[CH2]CCC` [TBTO, tri-n-butyltin oxide]: the “weight loss (1 hour at 180° C.)” value in data set [1] turned out to be 98%. For the same compound, the Water solubility in data set [2] was 24.0 mg/liter of water. Besides, the “Zones of inhibition about the specimens, Bacillus mesentericus” value in data set [3] (setting [8]) stood at 5 cm^2; in data set [3] (setting [9]) it was 8 cm^2; in data set [3] (setting [10]), 14 cm^2; in data set [3] (setting [11]), 20 cm^2. Also, the “Zones of inhibition about the specimens, Proteus vulgaris” value in data set [4] (setting [8]) worked out at 3 cm^2; in data set [4] (setting [9]), 6 cm^2; in data set [4] (setting [10]) it was 9 cm^2; in data set [4] (setting [11]), 12 cm^2. Also, the “Thermobalance: Weight loss at 350° C.” value in data set [5] (350° C.) stood at 80%. The “Thermobalance: Onset of weight loss” value in data set [5] is 75 °C. The “Zones of inhibition about the specimens, Bacillus subtilis” value in data set [6] (setting [8]) was 6 cm^2; in data set [6] (setting [9]) it was 13 cm^2; in data set [6] (setting [10]), 18 cm^2; in data set [6] (setting [11]), 20 cm^2. The “Weight loss after 7 days at 65° C.” value in data set [7] was found to be 27.3%.

Values taken from patent US4968455A, “Tris(triorganotin) esters of trimeric fatty acids” (Schering Aktiengesellschaft, priority 1984, dated 1990).
